Measured values published in patent US6603046B1, “Bis-aromatic a,β-unsaturated ketones” (Lica Pharmaceuticals A/S, priority 1992, dated 2003).
Read-outs that look alike come from different tables or passages of the source. Marks after values point to notes of the source that are not given here.

Key:
[1] = system: Eimeria tenella; test: Anticoccidial activity in chickens infected with Eimeria tenella (Example 28); type: in vivo; settings: for feed consumption after 7 days of treatment / feed consumption after 14 days of treatment: amount of feed consumed per kg chicken weight gain, doses as Table 28.1; for Weight gain in 7 days after initiation of treatment / Weight gain in 14 days after initiation of treatment: in feed: salinomycin 70 ppm, 2,5 m4′ac and 2,4 mc 30 mg/kg/day, licochalcone A 10 mg/kg/day; for Mortality: number of chickens, groups of 35, licochalcone A 20
[2] = system: human lymphocytes; test: Lymphocyte Proliferation Assay, 3H-thymidine incorporation (Example 13); settings: Homo sapiens, Lymphocyte, read-out: inhibition of lymphocytes (lower figure)
[3] = system: L. major promastigotes; test: L. major promastigotes from 4-days cultures, 3H-thymidine uptake (Examples 5, 14); type: cell-based, Leishmania major; settings: Leishmania major, Table 14.1, read-out: percentage inhibition of promastigotes (upper figure); for inhibition at 0.5 µg/mL: 0.5 μg/ml; for inhibition at 1 µg/mL: 1 μg/ml; for inhibition at 5 µg/mL: 5 μg/ml; for inhibition at 10 µg/mL: 10 μg/ml
Method: Parasite cultures. The same parasite culture as described in Example 4. Promastigotes were harvested on day 4 of the culture and used for the parasiticidal assay.
Effect on promastigotes. […] Following incubation, […] of ^3H-thymidine was added to each well and further incubated for 18 hrs. Promastigotes were then harvested on filter paper by means of a cell harvester (Skatron, Lierbyen, Norway), extensively washed with distilled water and counted in a scintillation counter (Minaxi Ti-Carb 4000, United Technologies, Packard, USA).
L. major promastigotes. The L. major promastigotes were prepared as described in Example 4 and harvested after 4 days.

[4] = system: P. falciparum; test: P. falciparum growth in vitro (Table 14.1, strain not stated); type: cell-based; settings: Plasmodium falciparum; for inhibition at 0.5 µg/mL: 0.5 μg/ml; for inhibition at 1 µg/mL: 1 μg/ml; for inhibition at 10 µg/mL: 10 μg/ml
Method: The P. falciparum experimental setup was as described in Example 15.
Testing of the effect of drugs and serum on the in vitro growth of the parasites. The experiments in which compounds were tested for their ability to inhibit parasite growth were performed by a modification of the method originally described by Jensen et al. (1982). Fifty μl of parasitized erythrocytes (parasitemia approximately 1%) in a concentration of 5×10^8/ml and 50 μl of RPMI medium containing different concentrations of the test compound was added to each well of a 96 well flat-bottomed microtiter plate (Nunc). The cultures were then incubated for 48 hours, 24 hours before termination of the culture adding 20 μl of 3-H-hypoxanthine (40 uCi/ml) (New England Nuclear, Boston, Mass., USA) was added to each well. The cultures were then harvested onto glass fiber filters using a Skatron cell harvester (Skatron, Lierbyen, Norway), and the incorporation of 3-H-hypoxanthine into the DNA of dividing parasites was determined by liquid scintillation spectrometry.

[5] = system: P. yoelii strain YM; test: P. yoelii strain YM infection in mice, parasitemia and mortality (Example 16); type: in vivo, BALB/c mice; settings: Table 16.12
[6] = system: chloroquine resistant P. falciparum DD2 strain; test: In vitro growth of P. falciparum DD2, 3H-hypoxanthine uptake (Example 15); type: cell-based, Plasmodium falciparum; settings: title: percentage inhibition of 3H-hypoxanthine uptake
[7] = read-out: inhibition of malaria parasites (middle figure) (converted)
[8] = 5 μg/ml, read-out: inhibition of malaria parasites (middle figure) (converted)
[9] = D + 5, i.p. 40 mg/kg twice daily
[10] = D + 6, i.p. 10 mg/kg twice daily
[11] = D + 6, i.p. 20 mg/kg twice daily
[12] = D + 6, i.p. 30 mg/kg twice daily
[13] = D + 6, i.p. 40 mg/kg twice daily
[14] = D + 8, i.p. 20 mg/kg twice daily
[15] = D + 8, i.p. 30 mg/kg twice daily
[16] = D + 10, i.p. 30 mg/kg twice daily

| SMILES | feed consumption after 7 days of treatment [1] | feed consumption after 14 days of treatment [1] | Weight gain in 7 days after initiation of treatment [1] [grams per chicken] | Weight gain in 14 days after initiation of treatment [1] | Mortality [1] | inhibition at 0.5 µg/mL [2] [%] | inhibition at 1 µg/mL [2] [%] | inhibition at 5 µg/mL [2] [%] | inhibition at 10 µg/mL [2] [%] | inhibition at 0.5 µg/mL [3] [%] | inhibition at 1 µg/mL [3] [%] | inhibition at 5 µg/mL [3] [%] | inhibition at 10 µg/mL [3] [%] | inhibition at 0.5 µg/mL [4, 7] [%] | inhibition at 1 µg/mL [4, 7] [%] | inhibition at 5 µg/mL [4, 8] [%] | inhibition at 10 µg/mL [4, 7] [%] | other results |
| --- | --- | --- | --- | --- | --- | --- | --- | --- | --- | --- | --- | --- | --- | --- | --- | --- | --- | --- |
| CC[C@@H](C(=O)[C@@H](C)[C@@H](O)[C@H](C)[C@@H]1O[C@@H]([C@@H](CC)C(=O)O)CC[C@@H]1C)[C@H]1O[C@]2(C=C[C@@H](O)[C@]3(CC[C@@](C)([C@H]4CC[C@](O)(CC)[C@H](C)O4)O3)O2)[C@H](C)C[C@@H]1C [salinomycin, reference compound] | 1.30 | 1.44 | 425 | 900^a grams per chicken | 0 | – | – | – | – | – | – | – | – | – | – | – | – | Difference in weight gain to group 5 (control infected) after treatment for 14 days ([1]; normal variation ±2%): ^aDifference between groups 1 (standard feed) and 5 (control infected) after treatment for 14 days is 12%. |
| C=CCOc1ccc(C(=O)/C=C/c2c(OC)cccc2OC)cc1 [drawing 83] | – | – | – | – | – | 1 | 1.3 | 0 | 0 | 11.3 ± 9.8 | 16.3 ± 12.4 | 63.7 ± 24.2 | 91.1 ± 4.1 | 0 | 27.4 | 39.7 | 65.7 | – |
| COc1ccc(/C=C/C(=O)c2ccc(O)cc2)cc1OC [drawing 73] | – | – | – | – | – | 0 | 0.1 | 5.2 | 27.4 | 17.8 | 34.3 | 65.6 | 80 | 21 | 35.1 | 39.9 | 73.4 | – |
| COc1ccc(/C=C/C(=O)c2ccccc2)c(OC)c1 [2,4mc, 2,4-dimethoxychalcone] | 1.30 | 1.48 | 380 | 803^ grams per chicken | 1 | – | – | – | – | – | – | – | – | – | – | – | – | % parasitemia [5, 9]: 78%; mortality (no. of dead mice/total no. of tested mice) [5, 9]: 4/5; mortality (no. of dead mice/total no. of tested mice) [5, 10]: (5/5); % parasitemia [5, 11]: 85%; mortality (no. of dead mice/total no. of tested mice) [5, 11]: 4/5; % parasitemia [5, 12]: 29%; mortality (no. of dead mice/total no. of tested mice) [5, 12]: 3/5; mortality (no. of dead mice/total no. of tested mice) [5, 13]: (5/5); mortality (no. of dead mice/total no. of tested mice) [5, 14]: (5/5); % parasitemia [5, 15]: 15%; mortality (no. of dead mice/total no. of tested mice) [5, 15]: 4/5; % parasitemia [5, 16]: 65%; mortality (no. of dead mice/total no. of tested mice) [5, 16]: 4/5; mortality (no. of dead mice/total no. of tested mice) ([5]; D + 12, i.p. 30 mg/kg twice daily): (5/5) |
| C=CCOc1ccc(C(=O)/C=C/c2ccc(OC)cc2OC)cc1 [drawing 82] | – | – | – | – | – | 0 | 1.7 | 5.9 | 5.5 | 35.4 | 62.8 | 71.4 | 85.4 | 31.1 | 36.5 | 74.4 | 97.3 | – |
| COc1ccc(OC)c(/C=C/C(=O)c2ccc(O)cc2)c1 [drawing 71] | – | – | – | – | – | 3.2 | 6.9 | 78.8 | 98.2 | 34.3 | 61.9 | 96.2 | 99.1 | 15.2 | 23.1 | 71 | 93.1 | – |
| COc1ccc(/C=C/C(=O)c2ccccc2)c(OC)c1 [drawing 67] | – | – | – | – | – | 9.1 | 9.2 | 2 | 3.1 | 14.5 ± 11.6 | 27 ± 13.7 | 77.8 ± 11.3 | 95.5 ± 3.8 | 0 | 14.7 | – | 81.8 | inhibition at 5 µg/mL ([4]; read-out: inhibition of malaria parasites (middle figure)): 35.6% |
| C=CCOc1ccc(C(=O)/C=C/c2cc(OC)cc(OC)c2)cc1 [drawing 85] | – | – | – | – | – | 0 | 0 | 4.6 | 25.4 | 10.6 ± 10.7 | 27.6 ± 23.3 | 82.8 ± 10 | 98.3 ± 0.9 | 13.8 | 15.3 | 74.3 | 98.6 | – |
| C=CCOc1ccc(C(=O)/C=C/c2cc(OC)ccc2OC)cc1 [drawing 78] | – | – | – | – | – | 5.7 | 12.6 | 4.3 | 2.3 | 10 ± 9.7 | 15.6 ± 15.1 | 63 ± 15.1 | 89.4 ± 10.2 | 0 | 0 | 35 | 80 | – |
| C=CCOc1ccc(C(=O)/C=C/c2cc(OC)ccc2OC)cc1 [2,5-Dimethoxy-4′-allyloxychalcone, 2,5-dimethoxy-4′-prop-2enyloxychalcone] | 1.31 | 1.54 | 366 | 804^ grams per chicken | 2 | – | – | – | – | – | – | – | – | – | – | – | – | Growth in % of control (mean ± SEM) ([6]; 0.5 μg/ml): 15.8 ± 13.2%; Growth in % of control (mean ± SEM) ([6]; 1 μg/ml): 12.1 ± 13.7%; Growth in % of control (mean ± SEM) ([6]; 5 μg/ml): 45.3 ± 7.2%; Growth in % of control (mean ± SEM) ([6]; 10 μg/ml): 74.4 ± 4.4%; mortality (no. of dead mice/total no. of tested mice) [5, 10]: (5/5); % parasitemia [5, 11]: 79%; mortality (no. of dead mice/total no. of tested mice) [5, 11]: 4/5; % parasitemia [5, 12]: 62%; mortality (no. of dead mice/total no. of tested mice) [5, 12]: 3/5; mortality (no. of dead mice/total no. of tested mice) [5, 13]: (5/5); mortality (no. of dead mice/total no. of tested mice) [5, 14]: (5/5); % parasitemia [5, 15]: 78%; mortality (no. of dead mice/total no. of tested mice) [5, 15]: 4/5; mortality (no. of dead mice/total no. of tested mice) [5, 16]: (5/5) |
